Source: ChEMBL document CHEMBL3727374, “Compounds, pharmaceutical compositions, and methods of treating or preventing neurodegenerative diseases or disorders” (2012)
Activity calls are given as the source filed them. No cut-off for these calls is given here.

Key:
[1] = biological target: T1, Phosphatidylinositol 5-phosphate 4-kinase type-2 gamma (Homo sapiens, UniProt Q8TBX8); experiment: Inhibition of PIP5K2C (unknown origin)
T1 sequence (Q8TBX8 whole entry): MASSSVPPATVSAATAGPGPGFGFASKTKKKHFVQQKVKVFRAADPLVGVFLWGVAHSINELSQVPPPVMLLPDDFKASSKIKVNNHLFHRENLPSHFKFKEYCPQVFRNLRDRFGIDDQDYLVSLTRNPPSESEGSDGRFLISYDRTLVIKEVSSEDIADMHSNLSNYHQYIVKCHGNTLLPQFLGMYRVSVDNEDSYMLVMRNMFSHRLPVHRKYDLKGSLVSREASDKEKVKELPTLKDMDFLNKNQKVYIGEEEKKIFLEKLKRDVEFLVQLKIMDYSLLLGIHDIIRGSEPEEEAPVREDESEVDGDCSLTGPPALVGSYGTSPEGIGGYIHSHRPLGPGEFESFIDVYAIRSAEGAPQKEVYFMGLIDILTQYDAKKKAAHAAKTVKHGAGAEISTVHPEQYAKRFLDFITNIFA

[2] = biological target: Huntingtin (Homo sapiens, UniProt P42858); experiment: Inhibition of GFP-fused Huntingtin protein Q103/Q25 mutant (unknown origin) […] assessed as protection against huntingtin protein aggregation incubated for 48 hrs by multiplexed assay based HTT f3(agr) method; format: cell-based; details: pc-12
Huntingtin, sequence (P42858 whole entry, looked up, stated change not applied, the tested form may be a part): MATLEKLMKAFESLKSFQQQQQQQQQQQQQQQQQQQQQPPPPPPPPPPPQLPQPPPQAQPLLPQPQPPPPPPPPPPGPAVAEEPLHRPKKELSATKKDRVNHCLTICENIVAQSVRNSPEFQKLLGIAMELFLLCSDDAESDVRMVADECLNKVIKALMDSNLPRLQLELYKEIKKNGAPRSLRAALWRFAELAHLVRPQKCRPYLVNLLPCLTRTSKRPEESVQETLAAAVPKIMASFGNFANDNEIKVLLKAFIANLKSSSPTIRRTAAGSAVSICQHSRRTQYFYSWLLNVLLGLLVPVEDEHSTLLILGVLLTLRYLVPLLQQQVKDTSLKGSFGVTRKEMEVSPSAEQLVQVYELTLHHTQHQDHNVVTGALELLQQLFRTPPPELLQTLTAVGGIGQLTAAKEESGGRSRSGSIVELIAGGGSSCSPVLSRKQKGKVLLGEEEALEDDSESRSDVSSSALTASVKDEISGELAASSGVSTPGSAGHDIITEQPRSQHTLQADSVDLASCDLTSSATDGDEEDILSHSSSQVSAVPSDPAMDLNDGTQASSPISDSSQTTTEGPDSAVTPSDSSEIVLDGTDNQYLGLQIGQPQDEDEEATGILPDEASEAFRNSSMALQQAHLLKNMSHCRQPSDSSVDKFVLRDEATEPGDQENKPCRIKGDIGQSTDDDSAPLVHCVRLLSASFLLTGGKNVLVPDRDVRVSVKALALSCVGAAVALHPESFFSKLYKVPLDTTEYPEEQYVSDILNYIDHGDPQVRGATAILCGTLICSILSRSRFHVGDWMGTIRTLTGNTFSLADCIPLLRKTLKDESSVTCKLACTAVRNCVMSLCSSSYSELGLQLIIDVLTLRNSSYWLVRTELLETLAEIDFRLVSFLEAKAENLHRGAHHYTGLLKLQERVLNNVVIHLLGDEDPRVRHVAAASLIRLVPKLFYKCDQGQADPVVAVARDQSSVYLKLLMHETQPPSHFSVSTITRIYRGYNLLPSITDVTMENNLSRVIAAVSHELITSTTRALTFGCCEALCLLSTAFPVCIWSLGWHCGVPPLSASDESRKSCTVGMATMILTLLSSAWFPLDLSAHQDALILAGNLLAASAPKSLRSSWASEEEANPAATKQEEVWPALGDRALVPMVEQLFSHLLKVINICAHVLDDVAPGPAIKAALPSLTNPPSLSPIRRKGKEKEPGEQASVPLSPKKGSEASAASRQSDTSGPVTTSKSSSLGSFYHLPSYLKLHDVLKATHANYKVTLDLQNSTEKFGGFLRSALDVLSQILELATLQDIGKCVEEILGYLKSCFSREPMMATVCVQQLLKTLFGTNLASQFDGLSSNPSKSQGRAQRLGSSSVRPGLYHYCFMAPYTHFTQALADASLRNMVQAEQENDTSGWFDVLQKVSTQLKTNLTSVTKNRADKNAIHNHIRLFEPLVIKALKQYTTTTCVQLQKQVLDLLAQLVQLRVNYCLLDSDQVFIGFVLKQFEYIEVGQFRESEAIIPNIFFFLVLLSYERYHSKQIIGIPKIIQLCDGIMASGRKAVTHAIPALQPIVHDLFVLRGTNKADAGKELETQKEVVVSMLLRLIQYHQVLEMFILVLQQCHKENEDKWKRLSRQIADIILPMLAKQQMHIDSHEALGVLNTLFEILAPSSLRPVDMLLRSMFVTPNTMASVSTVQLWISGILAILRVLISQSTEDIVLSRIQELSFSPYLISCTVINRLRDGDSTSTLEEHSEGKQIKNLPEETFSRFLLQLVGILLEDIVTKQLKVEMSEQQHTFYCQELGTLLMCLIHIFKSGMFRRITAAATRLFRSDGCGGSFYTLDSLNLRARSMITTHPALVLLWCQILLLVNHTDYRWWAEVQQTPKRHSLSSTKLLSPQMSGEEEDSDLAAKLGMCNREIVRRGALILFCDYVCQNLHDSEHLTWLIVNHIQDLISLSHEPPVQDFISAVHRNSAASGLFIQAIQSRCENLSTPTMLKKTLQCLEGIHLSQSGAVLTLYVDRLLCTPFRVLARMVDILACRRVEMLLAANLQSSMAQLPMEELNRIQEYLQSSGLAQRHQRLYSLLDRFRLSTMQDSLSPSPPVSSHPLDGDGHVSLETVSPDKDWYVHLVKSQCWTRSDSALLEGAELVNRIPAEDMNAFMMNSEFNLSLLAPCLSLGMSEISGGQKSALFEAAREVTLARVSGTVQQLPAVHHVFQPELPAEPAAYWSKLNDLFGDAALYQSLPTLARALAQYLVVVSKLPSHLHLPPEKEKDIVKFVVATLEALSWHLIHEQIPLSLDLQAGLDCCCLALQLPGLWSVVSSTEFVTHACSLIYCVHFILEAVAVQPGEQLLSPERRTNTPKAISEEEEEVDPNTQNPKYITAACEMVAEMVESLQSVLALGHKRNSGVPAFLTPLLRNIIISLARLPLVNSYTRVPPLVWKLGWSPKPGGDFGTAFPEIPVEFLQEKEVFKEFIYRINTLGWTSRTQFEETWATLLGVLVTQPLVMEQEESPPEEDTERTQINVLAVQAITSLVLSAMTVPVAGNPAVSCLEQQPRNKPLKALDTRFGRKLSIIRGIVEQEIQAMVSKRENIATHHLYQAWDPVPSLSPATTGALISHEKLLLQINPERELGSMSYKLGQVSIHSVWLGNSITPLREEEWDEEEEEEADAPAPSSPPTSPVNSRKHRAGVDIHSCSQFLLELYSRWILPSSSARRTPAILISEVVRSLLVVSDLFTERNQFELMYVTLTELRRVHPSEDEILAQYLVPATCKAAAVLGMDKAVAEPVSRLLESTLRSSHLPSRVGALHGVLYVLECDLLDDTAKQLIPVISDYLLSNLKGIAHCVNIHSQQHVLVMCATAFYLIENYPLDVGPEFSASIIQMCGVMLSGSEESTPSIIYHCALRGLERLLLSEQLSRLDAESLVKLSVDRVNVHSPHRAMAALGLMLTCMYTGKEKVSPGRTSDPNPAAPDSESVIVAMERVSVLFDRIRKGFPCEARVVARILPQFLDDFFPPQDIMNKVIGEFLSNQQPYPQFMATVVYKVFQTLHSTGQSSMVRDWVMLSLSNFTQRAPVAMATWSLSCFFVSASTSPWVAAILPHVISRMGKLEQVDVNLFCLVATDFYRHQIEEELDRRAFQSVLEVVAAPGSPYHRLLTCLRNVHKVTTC

[3] = Stability in mouse liver microsomes assessed as parent compound remaining at 5 uM incubated for 60 mins in absence of NADPH; format: ADME; details: read-out: Stability
[4] = Stability in mouse liver microsomes assessed as parent compound remaining at 5 uM incubated for 60 mins in presence of NADPH; format: ADME; details: read-out: Stability
[5] = Stability in mouse liver microsomes assessed as parent compound remaining at 1 uM incubated for 60 mins in absence of NADPH; format: ADME; details: read-out: Stability
[6] = Stability in mouse liver microsomes assessed as parent compound remaining at 1 uM incubated for 60 mins in presence of NADPH; format: ADME; details: read-out: Stability
[7] = system: STHdhQ111; experiment: Cytoprotective activity in mouse STHdhQ111 cells assessed as protection against beta-amyloid-induced cell death at 10 nM to 1 uM by MTT assay; format: functional, cell-based
[8] = system: STHdhQ111; experiment: Cytoprotective activity in mouse STHdhQ111 cells assessed as protection against H2O2-induced cell death at 10 nM to 1 uM by MTT assay; format: functional, cell-based
[9] = system: STHdhQ111; experiment: Cytoprotective activity in mouse STHdhQ111 cells against serum free medium-induced apoptotic cell death assessed as inhibition of caspase-3 activation incubated for 16 hrs; format: functional, cell-based
[10] = system: STHdhQ111; experiment: Cytoprotective activity in mouse STHdhQ111 cells against serum free medium-induced apoptotic cell death assessed as inhibition of caspase-9 activation incubated for 16 hrs; format: functional, cell-based

Compound | Kd [1] [µM] | AC50 [2] [µM] | other results
Cn1nnnc1Sc1ncnc2scc(-c3ccc4c(c3)OCO4)c12 | 12.6 | 20 | 
Cn1nnnc1Sc1ncnc2scc(-c3ccc(N)cc3)c12 | 5.62 |  | 
COc1ccccc1-c1csc2ncnc(Sc3nnnn3C)c12 | 79.4 | 31.6 | 
Cc1ccc(-c2csc3ncnc(Sc4nnnn4C)c23)cc1 | 14.1 | 39.8 | 
Cn1nnnc1Sc1ncnc2scc(-c3cc4ccccc4o3)c12 | 2.82 | 7.94 | 
Cn1nnnc1Sc1ncnc2scc(-c3ccc(C(=O)OC(C)(C)C)cc3)c12 | > 100 | 35.5 | 
Cn1nnnc1Sc1ncnc2scc(-c3ccsc3)c12 | 7.94 | 35.5 | 
Cn1nnnc1Sc1ncnc2scc(-c3ccccc3C#N)c12 | 6.3 |  | 
Cn1nnnc1Sc1ncnc2scc(-c3ccc(-c4ccccc4)cc3)c12 | > 100 | 28.2 | 
Cn1nnnc1Sc1ncnc2scc(-c3ccc([N+](=O)[O-])cc3)c12 | 6.31 | 35.5 | 
Cn1nnnc1Sc1ncnc2scc(-c3ccc(C#N)cc3)c12 | 12.6 | 35.5 | 
Cn1nnnc1Sc1ncnc2scc(-c3ccccc3)c12 | 3.55 | 39.8 | 
Cn1nnnc1Sc1ncnc2scc(-c3cccc([N+](=O)[O-])c3)c12 | 1.58 | 35.5 | 
Cn1nnnc1Sc1ncnc2scc(-c3ccc(S(C)(=O)=O)cc3)c12 | 7.94 | 15.8 | 
Cn1nnnc1Sc1ncnc2scc(-c3ccccc3[N+](=O)[O-])c12 | 11.2 | 15.8 | 
Cn1nnnc1Sc1ncnc2scc(-c3ccc(Br)cc3)c12 | 39.8 | 35.5 | 
Cn1nnnc1Sc1ncnc2scc(-c3cccc(C(F)(F)F)c3)c12 | 6.3 | 35.5 | 
Cn1nnnc1Sc1ncnc2scc(I)c12 | 0.89 | 35.5 | 
CS(=O)(=O)c1cccc(-c2csc3ncnc(NCCN)c23)c1 | > 100 |  | 
Cn1nnnc1Sc1ncnc2scc(Br)c12 | 1.12 | 5.01 | 
Cn1nnnc1Sc1ncnc2scc(-c3ccccc3C(F)(F)F)c12 | 63.1 | 28.2 | 
Cn1nnnc1Sc1ncnc2scc(-c3cccc4c3sc3ccccc34)c12 | > 100 | 35.5 | 
Cn1nnnc1Sc1ncnc2scc(-c3ccccc3F)c12 | 6.31 | 35.5 | 

Compound | Kd [1] [µM] | AC50 [2] [µM] | other results
Cn1nnnc1Sc1ncnc2scc(-c3cccc(F)c3)c12 | 6.31 | 14.1 | 
Cn1nnnc1Sc1ncnc2scc(-c3cccc(S(C)(=O)=O)c3)c12 | 0.63 | 39.8 | remaining at 1 h, 5 µM [3]: 89%; remaining at 1 h, 5 µM [4]: 70%
Cn1nnnc1Sc1ncnc2scc(-c3ccc[nH]3)c12 | 5.62 | 31.6 | 
CC(=O)c1ccc(-c2csc3ncnc(Sc4nnnn4C)c23)cc1 |  | 39.8 | remaining at 1 h, 1 µM [5]: 91%; remaining at 1 h, 1 µM [6]: 2%
Cn1nnnc1Sc1ncnc2scc(-c3ccc(Cl)cc3)c12 | 28.2 | 39.8 | 
Cc1cccc(-c2csc3ncnc(Sc4nnnn4C)c23)c1 | 11.2 | 35.5 | 
Cn1nnnc1Sc1ncnc2scc(-c3ccc4ccccc4c3)c12 | 63.1 | 15.8 | 
CC(=O)c1cccc(-c2csc3ncnc(Sc4nnnn4C)c23)c1 |  | 28.2 | Activity [7]: Active; Activity [8]: Active
Cn1nnnc1Sc1ncnc2scc(-c3ccc4c(=O)ccoc4c3)c12 | 1.99 | 35.5 | 
COc1cccc(-c2csc3ncnc(Sc4nnnn4C)c23)c1 | 3.98 | 28.2 | 
COc1ccc(-c2csc3ncnc(Sc4nnnn4C)c23)cc1 | 11.2 | 39.8 | 
Cn1nnnc1Sc1ncnc2scc(-c3cccs3)c12 | 2.82 | 35.5 | remaining at 1 h, 1 µM [5]: 88%; remaining at 1 h, 1 µM [6]: 0%
Cn1nnnc1Sc1ncnc2scc(-c3cccc4ccccc34)c12 | > 100 | 35.5 | 
Cn1nnnc1Sc1ncnc2scc(-c3cccc(C#N)c3)c12 | 2.51 | 35.5 | 
Cn1nnnc1Sc1ncnc2scc(-c3cccc(N)c3)c12 | 3.98 | 31.6 | 
CC(=O)c1ccccc1-c1csc2ncnc(Sc3nnnn3C)c12 | 44.7 |  | 
Cn1nnnc1Sc1ncnc2scc(-c3cccc(Cl)c3)c12 | 11.2 | 22.4 | 
Cn1nnnc1Sc1ncnc2scc(-c3cccc(Br)c3)c12 | 2.82 | 35.5 | 
Cc1ccccc1-c1csc2ncnc(Sc3nnnn3C)c12 | 44.7 |  | 
Cn1nnnc1Sc1ncnc2scc(-c3ccccc3Cl)c12 | 14.1 |  | 
Cn1nnnc1Sc1ncnc2scc(-c3ccc(F)cc3)c12 | 12.6 | 20 | Activity [9]: Active; Activity [10]: Active
Cn1nnnc1Sc1ncnc2scc(-c3ccc(C(F)(F)F)cc3)c12 | > 100 | 35.5 | 
